Patent publication US20250346629A1, “USE OF D-ENANTIOMERIC PEPTIDE LIGANDS OF MONOMERIC ALPHA-SYNUCLEIN FOR THE THERAPY OF VARIOUS SYNUCLEINOPATHIES” (PRIAVOID GMBH, priority 2021, published 2025)
Square brackets hold non-standard residues; d marks the D form. Peptide text beside a SMILES is read from it.

Key:
WT α-syn = WT α-syn (Homo sapiens, UniProt P37840); test: Single cycle SPR experiment of WT α-syn on CM5-immobilized peptides (FIG. 8); details: 1:1 binding model fit, CM5 chip, PBS pH 7.4, 0.005% Tween-20
Experimental: Each peptide was immobilized on a CM5 sensor chip surface. WT α-syn was injected in a concentration range of 30-500 nM in PBS, PH 7.4, 0.005% (v/v) Tween-20. Regeneration was carried out after every cycle with 2 M Gua-HCl for 2×30 sec. The KDs were determined with a 1:1 binding model fit, as follows: SVD-1a: 15.7 nM; SVD-6a: 14.0 nM; SVD-10a: 12.3 nM.

α-syn PFF oligomers = α-syn PFF oligomers (Homo sapiens, UniProt P37840); test: Decomposition of PFF oligomers (HPLC-SEC, DLS, AFM; FIG. 17); assay type: biochemical; details: 100 nM monomer-equivalent PFF oligomers, 400 and 1600 nM SVD-1a, 3 days, 37° C., PBS pH 7.4
Experimental: PFF oligomers were produced as follows. Firstly, insoluble PFF was produced by incubating 300 μM of recombinant α-syn in a LoBind reaction tube (Eppendorf GmbH, GE) with a borosilicate glass bead (d=3.0 mm; Hilgenberg, DE) in 20 mM NaPi, pH 7.0, 150 […] for one week at 37° C. The insoluble PFF was harvested by ultracentrifugation at 100 000×g for 30 min at 4° C., and the pellet was washed several times with 20 mM NaPi, PH 7.0, 150 mM NaCl. The monomer equivalent concentration was determined by measuring the α-syn concentration in the supernatant after the first centrifugation and subtracting this from the start concentration for the fibrillation. The insoluble PFF was resuspended in buffer and frozen at −80° C. with liquid N2. […]
The elimination of PFF oligomers was assessed by SEC and the subsequent detection of the PFF oligomer and monomer peaks. […] The proteins were detected at A214.
The measurements were carried out using a SpectroSize 300 131 (XtalConcepts, GE) device and a sample volume of 1 ml in a sealed quartz cuvette (Hellma Group, GE). […] Data points were recorded every 30 seconds for time-dependent DLS measurements. […]
(A) HPLC-SEC measurement samples were injected onto a Bio SEC-3 column (300 Å, Agilent, USA). The PFF oligomers eluted after approximately 5 min, while the α-syn monomer was detected after approximately 8.6 min. […]

[1] = Solubility of D-peptides in buffer (UV-vis of supernatant after centrifugation); assay type: physicochemical; details: different buffers including PBS, aqueous buffer; different buffer conditions including PBS pH 7.4; 1 h at 37° C., 20 800×g centrifugation; read-out: starting concentration up to which the compound remained completely in the supernatant
Source text: D-enantiomeric peptides with C-terminal amidation were acquired from CASLO (CASLO, DK) as a lyophilized chloride salt powder having a purity of >95%.

- Kd (WT α-syn): 0.0157 µM
- solubility at 1 h [1]: ≥ 1000 µM
SMILES: CC[C@@H](C)[C@@H](NC(=O)[C@@H](Cc1c[nH]cn1)NC(=O)[C@@H](CCC(=O)O)NC(=O)[C@@H](CCC(N)=O)NC(=O)[C@@H](Cc1c[nH]c2ccccc12)NC(=O)[C@@H](Cc1ccc(O)cc1)NC(=O)[C@H](NC(=O)[C@@H](CCC(=O)O)NC(=O)[C@@H](Cc1c[nH]cn1)NC(=O)[C@H](NC(=O)[C@H]1CCCN1C(=O)[C@@H](CC(C)C)NC(=O)[C@H](N)CCCNC(=N)N)[C@H](C)O)[C@H](C)O)C(=O)N[C@H](Cc1c[nH]c2ccccc12)C(=O)N[C@H](Cc1c[nH]cn1)C(=O)N[C@H](C)C(=O)N[C@H](CCCNC(=N)N)C(=O)N[C@H](CCCNC(=N)N)C(=O)N[C@H](CCCNC(=N)N)C(=O)N[C@H](CCCNC(=N)N)C(=O)N[C@H](CCCNC(=N)N)C(N)=O [SVD-1a, rlpthetywqehiwharrrrr] (H-[dR][dL][dP][dT][dH][dE][dT][dY][dW][dQ][dE][dH][dI][dW][dH][dA][dR][dR][dR][dR][dR]-NH2)
- effect on PFF oligomers (α-syn PFF oligomers): decomposes the PFF oligomers into α-syn monomers
